{
  "source": "patent US11230593B2",
  "about": "“Compositions and methods for treating and preventing influenza” (VISTERRA, INC., priority 2019, dated 2022)",
  "key": {"[1]": {"tested_on": "A/Hong Kong/4801/2014 (H3N2)", "assay": "microbe, parasite or virus in culture", "assay_type": "cell-based, Influenza A"}, "[2]": {"tested_on": "A/Michigan/45/2015 (H1N1)", "assay": "microbe, parasite or virus in culture", "assay_type": "cell-based, Influenza A"}, "[3]": {"tested_on": "A/California/04/2009 (H1N1)", "assay": "microbe, parasite or virus in culture", "assay_type": "cell-based", "conditions": "Influenza A virus"}, "[4]": {"tested_on": "A/PR/8/1934 (H1N1) (wild-type)", "assay": "microbe, parasite or virus in culture", "assay_type": "cell-based", "conditions": "Influenza A virus"}, "[5]": {"conditions": "in vivo, cited from earlier work"}, "[6]": {"conditions": "read-out: EC50 (μM) - Replicate 1"}, "[7]": {"conditions": "read-out: EC50 (μM) - Replicate 2"}},
  "note": "Where two headings read alike, the source gives them in different places.",
  "data": [
    {"compound": "CCC(CC)[C@H](NC(C)=O)[C@@H]1[C@H](O)[C@@H](C(=O)O)C[C@H]1N=C(N)N.O.O.O", "note": "[Peramivir (PER), Peramivir trihydrate]", "values": [
      {"measurement": "EC50", "setting": "[1]", "result": "the most potent NAI"},
      {"measurement": "EC50", "setting": "[1]; read-out: EC50", "result": 57, "unit": "nM"},
      {"measurement": "EC50", "setting": "[2]; [6]", "result": 0.01, "unit": "µM"},
      {"measurement": "EC50", "setting": "[2]; [7]", "result": "< 0.006", "unit": "µM"}
    ]},
    {"compound": "CC(=O)N[C@H]1[C@H]([C@H](O)[C@H](O)CO)OC(C(=O)O)=C[C@@H]1N=C(N)N", "note": "[Zanamivir (ZAN), Zanamivir]", "values": [
      {"measurement": "EC50", "setting": "[1]; Influenza A virus, H3N2, 40 h", "result": 2600, "unit": "nM"},
      {"measurement": "EC50", "setting": "[2]; Influenza A virus, H1N1, MDCK, read-out: EC50 (μM) - Replicate 1", "result": 0.06, "unit": "µM"},
      {"measurement": "EC50", "setting": "[2]; Influenza A virus, H1N1, MDCK, read-out: EC50 (μM) - Replicate 2", "result": 0.034, "unit": "µM"}
    ]},
    {"compound": "O=C1c2c(O)c(=O)ccn2N([C@@H]2c3ccccc3SCc3c2ccc(F)c3F)[C@@H]2COCCN12", "note": "[baloxavir, Baloxavir]", "values": [
      {"measurement": "EC50", "setting": "[3]", "result": 1, "unit": "nM"},
      {"measurement": "EC50", "setting": "[1]; Influenza A virus, H3N2", "result": 0.8, "unit": "nM"},
      {"measurement": "EC50", "setting": "[4]", "result": "~1", "unit": "nM"},
      {"measurement": "Cmax", "setting": "[5]; 40 mg", "result": 96.4, "unit": "ng/mL"},
      {"measurement": "Cmax", "setting": "[5]; 80 mg", "result": 107, "unit": "ng/mL"}
    ]},
    {"compound": "Oseltamivir acid [Oseltamivir (OSE)]", "values": [
      {"measurement": "EC50", "setting": "[1]; read-out: EC50", "result": 760, "unit": "nM"},
      {"measurement": "CC50", "setting": "MDCK cells", "result": ">50", "unit": "µg/mL"},
      {"measurement": "EC50", "setting": "[2]; [6]", "result": 0.18, "unit": "µM"},
      {"measurement": "EC50", "setting": "[2]; [7]", "result": 0.024, "unit": "µM"}
    ]}
  ]
}
